# Reference: patent US20190085404A1, “METHODS OF IDENTIFYING AND TREATING IMMUNE CHECKPOINT INHIBITOR-RESPONSIVE NEOPLASMS AND CELLS, TRANSGENIC ANIMALS AND KITS FOR USE THEREIN” (The Board of Trustees of the Leland Stanford Junior …, priority 2016, published 2019)
# How the values were obtained:
# [1] = tested on: human T-ALL cell line CCRF-CEM; experiment: CD47, PD-L1 and MYC expression in CCRF-CEM cells after MYC inhibition; type: cell-based
# Procedure: (§1) Hematopoietic tumor cell lines (MYC T-ALL 4188 cells derived from the transgenic mouse model, human P493-6, human T-ALL Jurkat, and human T-ALL CCRF-CEM) were grown in RPMI 1640 supplemented with 10% FBS, 1% penicillin/streptomycin, 50 μM 2-mercaptoethanol at 37° C. in 5% CO2. Solid human tumor cell lines (H1299, SKMEL28), mouse MYC HCC, and human HEPG2 were grown in DMEM supplemented with 10% FBS and 1% penicillin/streptomycin at 37° C. in 5% CO2. To turn off expression of the MYC transgene, cells were treated with 20 ng/mL Dox. Primary human T-ALL cells were obtained from four deidentified patient samples and were cultured as previously described (Bruserud et al. 2003). Briefly, cells were cultured in StemSpan H3000 (StemCell) supplemented with human stem cell factor (50 ng/ml), human IL-7 (20 ng/ml), human IL-3 (20 ng/ml), and human FLT3 ligand (20 ng/ml) (Peprotech). Human cell lines were purchased from ATCC. […]
# (§2) All tissues and cells were flash-frozen in liquid nitrogen and stored at −80° C. until RNA preparation. […] Data was analyzed using the cycle threshold method (normalized to UBC). […]
# (§3) Tissues were manually dissociated between microscope slides and strained to remove debris. […] Labeled cells were analyzed on a FACSCalibur (Becton Dickinson), and data was analyzed using FlowJo (Treestar). […]
# (§4) FIG. 1A: Flow cytometry median fluorescence intensity (MFI) was used to determine the relative cell surface expression of CD47, PD-L1, and other immune proteins following MYC inactivation in MYC T-ALL 4188 cells in vitro (n=3). FIG. 1B: Tumors were harvested from primary MYC-driven lymphomas 0 or 4 days following MYC inactivation. mRNA and protein levels were quantified by qPCR and flow cytometry MFI (n=3 tumors per condition). […] FIG. 1C: CD47 and PD-L1 protein levels in Jurkat and CCRF-CEM cells were quantified by flow cytometry MFI following MYC inhibition by conditional shRNA knockdown or 10 μM JQ1 treatment (n=3 biological replicates). […]
# [2] = tested on: human T-ALL cell line Jurkat; experiment: CD47, PD-L1 and MYC expression in Jurkat cells after MYC inhibition; type: cell-based
# Procedure: as §1, §2, §3, §4
# [3] = tested on: human melanoma cell line SKMEL28; experiment: CD47 and PD-L1 mRNA and protein in SKMEL28 cells after MYC inactivation; type: cell-based; conditions: 48 hours, 10 μM JQ1 or MYC shRNA knockdown
# Procedure: (§5) Hematopoietic tumor cell lines (MYC T-ALL 4188 cells derived from the transgenic mouse model, human P493-6, human T-ALL Jurkat, and human T-ALL CCRF-CEM) were grown in RPMI 1640 supplemented with 10% FBS, 1% penicillin/streptomycin, 50 μM 2-mercaptoethanol at 37° C. in 5% CO2. Solid human tumor cell lines (H1299, SKMEL28), mouse MYC HCC, and human HEPG2 were grown in DMEM supplemented with 10% FBS and 1% penicillin/streptomycin at 37° C. in 5% CO2. To turn off expression of the MYC transgene, cells were treated with 20 ng/mL Dox. Primary human T-ALL cells were obtained from four deidentified patient samples and were cultured as previously described (Bruserud et al. 2003). Briefly, cells were cultured in StemSpan H3000 (StemCell) supplemented with human stem cell factor (50 ng/ml), human IL-7 (20 ng/ml), human IL-3 (20 ng/ml), and human FLT3 ligand (20 ng/ml) (Peprotech). Human cell lines were purchased from ATCC.
# (§6) shRNA-mediated knockdowns were performed with the pLKO.1 lentiviral vector containing either control, CD47, or PD-L1-specific shRNA. shRNA-mediated knockdown of human MYC was performed with the pLKO.1 lentiviral vector containing a scrambled control or MYC shRNA (Sigma). PD-L1 shRNA on a pLKO.1-puro backbone was purchased from Sigma and CD47 shRNA (Sigma) was cloned into a pLKO.1-Hygro backbone (Addgene). The plasmids were transfected into packaging cells and virus-containing medium supernatants were used to infect tumor cells using polybrene methodology. For conditional knockdowns, stable cell lines were generated and the time course following MYC inactivation with 20 ng/mL Dox is indicated. For stable knockdowns, the time course is indicated as the time post-viral infection.
# (§7) All tissues and cells were flash-frozen in liquid nitrogen and stored at −80° C. until RNA preparation. RNA was isolated using the TRIzol Reagent (Invitrogen) according to manufacturer instructions. cDNA was synthesized using SuperScriptIII (ThermoFisher). qPCR was performed using specific primers (Table 51) and the SYBR Green qPCR Kit (Roche) in an Applied Biosystems Real-Time PCR System (Life Technologies) with QuantStudio12K Flex Software. Data was analyzed using the cycle threshold method (normalized to UBC). A minimum of 3 biological and 3 technical replicates were used for all qPCR experiments.
# as §3
# (§8) FIG. 2A and FIG. 2B: The mRNA and protein levels of MYC, CD47, and PD-L1 in human melanoma SKMEL28 and human NSCLC H1299 cells were determined by qPCR and flow cytometry MFI, respectively, 48 hours after MYC inactivation in vitro. […]
# [4] = tested on: human non-small cell lung cancer (NSCLC) cell line H1299; experiment: CD47 and PD-L1 mRNA and protein in H1299 cells after MYC inactivation; type: cell-based; conditions: 48 hours, 10 μM JQ1 or MYC shRNA knockdown
# Procedure: as §5, §6, §7, §3, §8
# [5] = tested on: primary human T-ALL cells; experiment: CD47, PD-L1, CD8 and MYC expression in primary human T-ALL samples; type: cell-based; conditions: 48 h; for CD8 expression / CD47 cell surface expression / PD-L1 cell surface expression: four primary human T-ALL samples, flow cytometry MFI, 10 μM JQ1, 10 μM cisplatin or shRNA
# Procedure: as §5, §6, §7
# (§9) Tissues were manually dissociated between microscope slides and strained to remove debris. Lysis buffer (0.15 M NH4Cl, 10 mM KHCO3, 0.1 mM EDTA pH 7.3) was used to remove red blood cells. Cells were washed and resuspended in cold flow cytometry buffer (1% FBS, 0.1% sodium azide in PBS). Staining was performed according to manufacturer instructions with the indicated antibodies (eBioscience). Labeled cells were analyzed on a FACSCalibur (Becton Dickinson), and data was analyzed using FlowJo (Treestar). Each plot is representative of three or more animals. Annexin-V and 7-AAD were used according to manufacturer's protocol (eBioscience).
# FIG. 6A-6B: MYC mRNA levels before and after treatment with shRNA against MYC or treatment with JQ1. MYC mRNA was measured by qPCR in human T-ALL cell lines (A, n=3) and primary human T-ALL (B, n=4) cells following MYC inhibition by shRNA or JQ1 treatment after the indicated number of hours (0-48 h for human T-ALL cell lines, 48 h for primary T-ALL).
# FIG. 9A: CD47 and PD-L1 protein levels in primary human T-ALL tumor samples were quantified by flow cytometry, following 48 h treatment with control scramble shRNA or MYC-targeting shRNA. FIG. 9B: CD47, PD-L1, or CD8 protein levels in primary human T-ALL tumor samples were quantified by flow cytometry MFI, following 48 h treatment with control scramble shRNA or MYC-targeting shRNA, or treatment with 10 μM JQ1 or 10 μM cisplatin (n=4 distinct patient samples). Means±SEM are shown.
# MYC T-ALL 4188 cells = experiment: Chemotherapeutic drug treatment of MYC T-ALL cells, surface protein levels by flow cytometry; type: cell-based, mouse; conditions: for CD3 expression / CD8 expression / CD25 expression / CD69 expression / CD47 expression / PD-L1 expression: MYC T-ALL 4188 cells, 10 μM; for CD3 expression / CD8 expression / CD25 expression / CD69 expression: flow cytometry; for CD47 expression / PD-L1 expression: flow cytometry MFI; for tumor cell death: MYC T-ALL cells, 10 μM each
# Procedure: as §5, §9
# FIG. 7A: CD47 and PD-L1 protein levels in MYC T-ALL 4188 cells treated with prednisone, cytoxan, cisplatin, or vincristine (10 μM each) were quantified by flow cytometry MFI. Means±SEM are shown, n=3. FIG. 7B-7E: CD3, CD8, CD25, and CD69 protein levels in MYC T-ALL 4188 cells treated as in FIG. 7A were quantified by flow cytometry. Means±SEM are shown (n=3).
# [6] = tested on: cells derived from mouse MYC-driven HCC; experiment: CD47 and PD-L1 protein levels in mouse MYC-driven HCC cells after chemotherapy treatment; type: cell-based; conditions: flow cytometry MFI
# Procedure: as §1, with “2003).” for “2003). Briefly, cells were cultured in StemSpan H3000 (StemCell) supplemented with human stem cell factor (50 ng/ml), human IL-7 (20 ng/ml), human IL-3 (20 ng/ml), and human FLT3 ligand (20 ng/ml) (Peprotech). Human cell lines were purchased from ATCC.”
# as §3
# FIG. 8A: CD47 and PD-L1 protein levels in cells derived from mouse MYC-driven HCC, following MYC inactivation or chemotherapy treatment, were quantified by flow cytometry MFI (n=3). FIG. 8B: CD47 and PD-L1 mRNA levels were quantified by qPCR and protein levels were quantified by flow cytometry in primary tumors from mouse MYC-driven HCC, following MYC inactivation (n=3 tumors per condition). […]
# [7] = CCRF-CEM, protein by flow cytometry MFI, conditional shRNA knockdown or 10 μM JQ1
# [8] = human T-ALL cell lines, qPCR, 0-48 h
# [9] = Jurkat, protein by flow cytometry MFI, conditional shRNA knockdown or 10 μM JQ1
Structure (SMILES),CD8 expression [5],CD47 cell surface expression [5],PD-L1 cell surface expression [5],CD3 expression (MYC T-ALL 4188 cells),CD8 expression (MYC T-ALL 4188 cells),CD25 expression (MYC T-ALL 4188 cells),CD69 expression (MYC T-ALL 4188 cells),CD47 expression (MYC T-ALL 4188 cells),PD-L1 expression (MYC T-ALL 4188 cells),tumor cell death (MYC T-ALL 4188 cells),also measured
Cc1sc2c(c1C)C(c1ccc(Cl)cc1)=N[C@@H](CC(=O)OC(C)(C)C)c1nnc(C)n1-2 [JQ1],unaffected,reduced,reduced,–,–,–,–,–,–,–,"expression of CD47 [1, 7]: reduced; expression of PD-L1 [1, 7]: reduced; expression of MYC mRNA [1, 8]: reduced; expression of CD47 [2, 9]: reduced; expression of PD-L1 [2, 9]: reduced; expression of MYC mRNA [2, 8]: reduced; expression of CD47 protein ([3]; flow cytometry MFI): reduced; expression of PD-L1 protein ([3]; flow cytometry MFI): reduced; expression of CD47 mRNA ([3]; qPCR): reduced; expression of PD-L1 mRNA ([3]; qPCR): reduced; expression of CD47 protein ([4]; flow cytometry MFI): reduced; expression of PD-L1 protein ([4]; flow cytometry MFI): reduced; expression of CD47 mRNA ([4]; qPCR): reduced; expression of PD-L1 mRNA ([4]; qPCR): reduced; expression of MYC mRNA ([5]; primary human T-ALL cells, qPCR): reduced"
N.N.[Cl][Pt][Cl] [cisplatin],unaffected,increased,increased,no effect,no effect,no effect,no effect,either unaffected or showed increased expression,either unaffected or showed increased expression,tumor cell death,expression of CD47 protein [6]: unaffected; expression of PD-L1 protein [6]: unaffected
O=P1(N(CCCl)CCCl)NCCCO1 (stereo not drawn) [cytoxan],–,–,–,no effect,no effect,no effect,no effect,either unaffected or showed increased expression,either unaffected or showed increased expression,tumor cell death,–
C[C@]12C=CC(=O)C=C1CC[C@@H]1[C@@H]2C(=O)C[C@@]2(C)[C@H]1CC[C@]2(O)C(=O)CO [prednisone],–,–,–,no effect,no effect,no effect,no effect,either unaffected or showed increased expression,either unaffected or showed increased expression,tumor cell death,–
CC[C@]1(O)C[C@H]2CN(CCc3c([nH]c4ccccc34)[C@@](C(=O)OC)(c3cc4c(cc3OC)N(C=O)[C@H]3[C@@](O)(C(=O)OC)[C@H](OC(C)=O)[C@]5(CC)C=CCN6CC[C@]43[C@@H]65)C2)C1 [vincristine],–,–,–,no effect,no effect,no effect,no effect,either unaffected or showed increased expression,either unaffected or showed increased expression,tumor cell death,–
